{"source": "patent US20250177412A1", "about": "“SMALL-MOLECULE INHIBITORS TARGETING THE BOB1/OCT1 INTERFACE” (NANTES UNIVERSITE, priority 2022, published 2025)", "test_system": "memory B cells", "test": "In vitro plasmablast differentiation, two-phase human B cell model, flow cytometry", "format": "cell-based", "conditions": "for expression of CD20 marker (CD20+ B cells): day 7 (FIG. 3O-P); for frequency of CD27+ cells: day 4", "description": "FIGS. 3A-Y are a combination of graphs and FACS plots showing that targeting BOB1-OCT(s) complex by compound 005 dose-dependently impairs B cells proliferation, activation and differentiation into plasmablasts in the human B cell differentiation in vitro model. Enriched memory B cells from the blood of healthy subjects (n=15) were stimulated at day 0 with anti-F(ab′)2, CD40L, CpG, and IL-2 for four days (activation phase). On day 4, cells were washed and stimulated with IL-2, IL-4, and IL-10 for additional three days (differentiation phase). Compound 005 was added daily to the cultures to a final concentration of 0 (DMSO), 5, 10, 15, 20 μM, as indicated. […] FIG. 3C-H show corresponding summarized data for the frequency (FIG. 3C, E and G) and relative mean fluorescence intensity (MFI; FIG. 3D, F and H) of CD27^+ (FIG. 3C-D), CD38^+ (FIG. 3E-F), and CD20^+ (FIG. 3G-H) B cells analyzed at Day 4. […] FIG. 3K-P show corresponding summarized data for the frequency (Fig. K, M and O) and relative mean fluorescence intensity (MFI; Fig. L, N and P) of CD27^+ (FIG. 3K-L), CD38^+ (FIG. 3M-N), and CD20^+ (FIG. 3O-P) B cells analyzed at Day 7. […] FIG. 3R-Y show the effect of compound 005 on the levels of IgG1 (FIG. 3R), IgG2 (FIG. 3S), IgG3 (FIG. 3T), IgG4 (FIG. 3U), IgA (FIG. 3V), IgE (FIG. 3W), IgM (FIG. 3X) and IgD (FIG. 3Y) immunoglobulin isotypes production at Day 7. Error bars are mean±SD. P values were determined with one-way ANOVA with Geisser-Greenhouse's multiple comparisons test.\nBlood samples were obtained from healthy volunteers provided by Sanquin Blood Supply Foundation (Amsterdam, the Netherlands) or from Etablissement Français du Sang (Nantes, France) after written consent was obtained. Peripheral blood mononuclear cells (PBMCs) were isolated through Ficoll-Paque gradient centrifugation on Lymphoprep (Nycomed). Total B cells were isolated from freshly purified PBMCs by negative selection (B cell Isolation Kit II; Miltenyi Biotech, 130-091-151) on magnetic columns using autoMACS Pro Separator according to the manufacturer's instructions. Subsequently, memory and naïve B cells were isolated from negatively-selected CD19^+ B cells by positive and negative selection with CD27 MicroBeads (Miltenyi Biotech, 130-051-601) using autoMACS Pro Separator according to the manufacturer's instructions. Ultimately, purity of the MACS-isolated CD19^+ B cells, CD19^+CD27^+IgD^− memory B cells and CD19^+CD27^−IgD^+ […] was assessed by flow cytometry; purity was >90% for B cells, >65% for memory B cells, and >85% for naive B cells. All cell cultures were carried out in RPMI 1640 medium (Thermo Fisher Scientific) supplemented with 10% FCS, L-glutamine, and penicillin/streptomycin. Cells were incubated at 37° C. in a 5% CO2 atmosphere.\nCells were resuspended in PBS and labelled with Cell Proliferation Dye eFluor 450 (CPD) (eBioscience) at a final concentration of 10 μM at 37° C. for 10 min, kept on ice for 5 min, and washed twice with 10 mL of ice-cold RPMI 1640 10% FCS medium.\nB cells were stimulated to differentiate into plasmablasts using a two-phase cell culture protocol as previously described. Briefly, B cells were seeded at 4×10^5 cells/mL in 24-well plates and activated during 4 days with 50 ng/mL recombinant human soluble CD40L (R&D Systems), 2.5 μg/mL CpG oligodeoxynucleotide (ODN) 2006 (Amidogen or Cayla Invivogen), 2 μg/mL F(ab′)2 fragment goat anti-human IgA+IgG+IgM (H+L) polyclonal Abs (anti-BCR) (Jackson ImmunoResearch Laboratories), and 50 U/mL human IL-2 (SARL Pharmaxie or Novartis). Day 4-activated B cells were washed and cultured at the same concentration for three additional days in a fresh medium containing 50 U/mL human IL-2, 10 ng/mL human IL-4 (R&D Systems), and 10 ng/mL human IL-10 (R&D Systems) to induce B cell differentiation into plasmablasts. […]"}
{"smiles": "Cc1ccc(NC(=O)C2CN(c3nc(NCCCc4ccc(F)cc4)nc(NCCC(=O)O)n3)c3ccccc3O2)cc1Cl", "note": "(centres unmarked) [compound 005, 3-((4-(2-((3-chloro-4-methylphenyl)carbamoyl)-2,3-dihydro-4H-benzo[b][1,4]oxazin-4-yl)-6-((3-(4-fluorophenyl)propyl)amino)-1,3,5-triazin-2-yl)amino)propanoic acid]", "values": [{"measurement": "frequency of CD38+ B cells", "setting": "5 μM, day 4, mean±SD", "value": "30.5±25.6", "unit": "%"}, {"measurement": "proliferating (CPD low) B cells", "setting": "5 μM, day 4, mean±SD", "value": "66.3±4.8", "unit": "%"}, {"measurement": "frequency of CD38+ B cells", "setting": "5 μM, day 7", "value": "68.9±10.2", "unit": "%"}, {"measurement": "relative proportion of CD27+ cells", "setting": "5 μM, day 7", "value": "54.3±15.9", "unit": "%"}, {"measurement": "frequency of CD38+ B cells", "setting": "10 μM, day 4, mean±SD", "value": "23.9±18.3"}, {"measurement": "proliferating (CPD low) B cells", "setting": "10 μM, day 4, mean±SD", "value": "46.7±18.3", "unit": "%"}, {"measurement": "CD20loCD38hi plasmablasts generation, median percentage decrease", "setting": "10 μM, day 7", "value": 30.3, "unit": "%"}, {"measurement": "frequency of CD38+ B cells", "setting": "10 μM, day 7", "value": "55.5±16.1"}, {"measurement": "relative proportion of CD27+ cells", "setting": "10 μM, day 7", "value": "53.6±14.2", "unit": "%"}, {"measurement": "expression of CD20 marker (CD20+ B cells)", "setting": "10 μM", "value": "81.7±12.4", "unit": "%"}, {"measurement": "frequency of CD27+ cells", "setting": "15 μM", "value": "9.5±11.7", "unit": "%"}, {"measurement": "frequency of CD38+ B cells", "setting": "15 μM, day 4, mean±SD", "value": "4.3±3.7", "unit": "%"}, {"measurement": "proliferating (CPD low) B cells", "setting": "15 μM, day 4, mean±SD", "value": "34.9±19.2", "unit": "%"}, {"measurement": "CD20loCD38hi plasmablasts generation, median percentage decrease", "setting": "15 μM, day 7", "value": 70.5, "unit": "%"}, {"measurement": "frequency of CD38+ B cells", "setting": "15 μM, day 7", "value": "26.3±13.9", "unit": "%"}, {"measurement": "expression of CD20 marker (CD20+ B cells)", "setting": "15 μM", "value": "85.4±11.7", "unit": "%"}, {"measurement": "frequency of CD27+ cells", "setting": "20 μM", "value": "6.4±6.4"}, {"measurement": "frequency of CD38+ B cells", "setting": "20 μM, day 4, mean±SD", "value": "2.5±2.2"}, {"measurement": "proliferating (CPD low) B cells", "setting": "20 μM, day 4, mean±SD", "value": "20.4±19.0", "unit": "%"}, {"measurement": "CD20loCD38hi plasmablasts generation, median percentage decrease", "setting": "20 μM, day 7", "value": 85.2, "unit": "%"}, {"measurement": "frequency of CD38+ B cells", "setting": "20 μM, day 7", "value": "13.0±12.9"}, {"measurement": "relative proportion of CD27+ cells", "setting": "20 μM, day 7", "value": "9.4±8.1", "unit": "%"}, {"measurement": "frequencies of naïve B cells", "setting": "with the increase in concentration, day 7", "value": "significantly increased"}]}
